Values after ≈ are worked out from the molar mass of the structure shown. Read-outs that look alike come from different tables or passages of the source.
Tests used:
[1] = system: B. fragilis A22862; experiment: Minimum Inhibitory Concentration, tube dilution; assay type: cell-based; conditions: Bacteroides fragilis, overnight 37° C., table 6
[2] = system: S. pyogenes A-9604; experiment: Minimum Inhibitory Concentration, tube dilution; assay type: cell-based; conditions: Streptococcus pyogenes, A9604, overnight 37° C.; table 6
[3] = system: S. aureus A9606; experiment: Protective effect, intramuscular treatment of infected mice (table 7); assay type: in vivo; conditions: Staphylococcus aureus, A9606, im; i.m. 0 to 2 hours post-infection; ~1×10^9 organisms i.p.; read-out: PD50 /treatment
Experimental: (§1) Drugs were administered i.m. 0 to 2 hours post-infection (A9606) or 1 and 3.5 hours post-infection for the others.

[4] = system: P. mirabilis A9900; experiment: as above; assay type: in vivo; conditions: Proteus mirabilis, A9900, im; i.m. 1 and 3.5 hours post-infection; ~1×10^7 organisms i.p.; read-out: PD50 /treatment
Experimental: as §1

[5] = system: P. aeruginosa A20481; experiment: as above; assay type: in vivo; conditions: Pseudomonas aeruginosa, A20481, im; i.m. 1 and 3.5 hours post-infection; ~1×10^5 organisms i.p.; read-out: PD50 /treatment
Experimental: as §1

[6] = system: S. aureus A-9537; experiment: Minimum Inhibitory Concentration, tube dilution; assay type: cell-based; conditions: Staphylococcus aureus, table 6, read-out: MIC
[7] = system: P. aeruginosa A9843A; experiment: animal or person; assay type: in vivo, mice; conditions: Pseudomonas aeruginosa, in Mus musculus, im, 3.5 h, read-out: PD50 /treatment
Experimental: as §1

[8] = system: S. aureus A-9606 (Pen-res.); experiment: Minimum Inhibitory Concentration, tube dilution; assay type: cell-based; conditions: Staphylococcus aureus, Pen-res; table 6
[9] = system: H. influenzae A-9833; experiment: Minimum Inhibitory Concentration, tube dilution; assay type: cell-based; conditions: Haemophilus influenzae, A9833; overnight 37° C.; table 6; read-out: MIC
[10] = system: S. aureus A15097 (Meth-res.); experiment: Minimum Inhibitory Concentration, tube dilution; assay type: cell-based; conditions: Staphylococcus aureus, table 6
[11] = system: K. pneumoniae A20468; experiment: Minimum Inhibitory Concentration, tube dilution; assay type: cell-based; conditions: Klebsiella pneumoniae, A20468
[12] = system: S. faecalis A20688; experiment: Minimum Inhibitory Concentration, tube dilution; assay type: cell-based; conditions: Enterococcus faecalis
[13] = system: B. fragilis A22696; experiment: Minimum Inhibitory Concentration, tube dilution; assay type: cell-based; conditions: Bacteroides fragilis
[14] = system: P. aeruginosa A-9843A; experiment: Minimum Inhibitory Concentration, tube dilution; assay type: cell-based; conditions: Pseudomonas aeruginosa, A9843A, overnight 37° C.; table 6; read-out: MIC
[15] = system: E. coli A15119; experiment: Minimum Inhibitory Concentration, tube dilution; assay type: cell-based; conditions: Escherichia coli, A15119, overnight 37° C.; table 6
[16] = system: E. coli A20341-1; experiment: Minimum Inhibitory Concentration, tube dilution; assay type: cell-based; conditions: Escherichia coli, A203411, overnight 37° C.; table 6
[17] = system: P. mirabilis A-9900; experiment: Minimum Inhibitory Concentration, tube dilution; assay type: cell-based; conditions: Proteus mirabilis, A9900, overnight 37° C.; table 6
[18] = system: S. pneumoniae A-9585; experiment: Minimum Inhibitory Concentration, tube dilution; assay type: cell-based; conditions: Streptococcus pneumoniae, A9585, overnight 37° C.; table 6
[19] = system: P. aeruginosa A21213; experiment: Minimum Inhibitory Concentration, tube dilution; assay type: cell-based; conditions: Pseudomonas aeruginosa
[20] = system: M. morganii A15153; experiment: Minimum Inhibitory Concentration, tube dilution; assay type: cell-based; conditions: Morganella morganii, A15153, overnight 37° C.; table 6
[21] = system: S. marcescens A20019; experiment: Minimum Inhibitory Concentration, tube dilution; assay type: cell-based; conditions: Serratia marcescens, A20019, overnight 37° C.; table 6
[22] = system: H. influenzae A21518; experiment: Minimum Inhibitory Concentration, tube dilution; assay type: cell-based; conditions: Haemophilus influenzae, overnight 37° C., table 6
[23] = system: P. vulgaris A21559; experiment: Minimum Inhibitory Concentration, tube dilution; assay type: cell-based; conditions: Proteus vulgaris, A21559, overnight 37° C.; table 6
[24] = Half-life in phosphate buffer pH 7.4; assay type: physicochemical; conditions: phosphate buffer
Experimental: To a solution of p-nitrobenzyl 3-[2-(1-pyridinium)ethylthio)]-6α[1-(R)-hydroxyethyl]-7-oxo-1-azabicyclo(3.2.0)hept-2-ene-carboxylate diphenylphosphate (0.16 g, 0.22 mmol) in wet tetrahydrofuran (10mL) was added ether (10mL), potassium phosphate monobasic-sodium hydroxide buffer pH 7.4 (16 mL, 0.05 M) and 10% palladium on charcoal (0.16 g). The resulting mixture was hydrogenated under 40 psi for 1 h at 25° C. The two phases were separated and the organic phase was extracted with water (2×3 mL). The aqeuous solutions were combined, washed with ether (2×10 ml) and poured on top of a column (1.5×6.2 cm) pf μ-bondapak C-18 after the traces of organic solvents have been removed under vacuum. Elution of the column with water gave after lyophylization of the appropriate fractions a yellowish powder 0.062 g (84%), ir (KBr) .nu.max : 3700-3000 (OH), 1755 (C--O of β-lactam), 1630 (pyridinium), 1590 cm^-1 (carboxylate), ^1 Hmr (D2 O): 1.22 (3H, d, J=6.4 Hz, CH3 CHOH), 2.92 (d, J=9.1 Hz, H-4), 2.97 (d, J=9.1 Hz, H-4), 3.20 (dd, J=2.5 Hz, J=6.1 Hz, H-6), 3.44 (t, J=6.0 Hz, CH2 S), 3.93 (dd, J=9.1 Hz, J=2.5 Hz, H-5), 4.82 (t, J=6.0 Hz, CH2 N^+), 8.04 (m, Hm of pyridinium), 8.5 (m, Hp of pyridinium), 8.82 (dd, J=3.2. Hz, J=1.1 Hz, Ho of pyridinium), uv (H2 O) λ max : 259 (ε5800), 296 (ε7030) mμ, .tau.1/2 =13.5 h (measured at a concentration of 10^-4 M in phosphate buffer pH 7.4 at 36.8° C.).

[25] = Pharmacokinetic parameters in the mouse after intramuscular dose; assay type: in vivo, mice; conditions: im, 20 mg/kg; for AUC / Cmax / half-life: blood; for half-life: read-out: T1/2 (blood); for dose excreted: urine, read-out: Urine Recovery
From the text: Also shown is the urinary recovery in the mice.
Compounds were solubilized in 0.1 M phosphate buffer pH 7.

[26] = system: E. cloacae A9659; experiment: Minimum Inhibitory Concentration, tube dilution; assay type: cell-based; conditions: Enterobacter cloacae, A9659, overnight 37° C.; table 6; read-out: MIC
[27] = system: P. rettgeri A22424; experiment: Minimum Inhibitory Concentration, tube dilution; assay type: cell-based; conditions: Providencia rettgeri, overnight 37° C., table 6, read-out: MIC
[28] = system: K. pneumoniae A-9664; experiment: Minimum Inhibitory Concentration, tube dilution; assay type: cell-based; conditions: Klebsiella pneumoniae, A9664, overnight 37° C.; table 6
[29] = system: P. aeruginosa A9843A; experiment: animal or person; assay type: in vivo, mice; conditions: Pseudomonas aeruginosa, in Mus musculus, im, read-out: PD50 /treatment
From the text: The PD50 (dose in mg/kg required to give protection to 50% of the infected mice) is indicated.

[30] = system: E. cloacae A-9656; experiment: Minimum Inhibitory Concentration, tube dilution; assay type: cell-based; conditions: Enterobacter cloacae, A9656; overnight 37° C.; table 6
[31] = A20688, overnight 37° C., table 6, read-out: MIC
[32] = A21213, overnight 37° C., table 6, read-out: MIC

Row | Structure (SMILES) | MIC [1] [µg/mL] | MIC [2] [µg/mL] | ED50 [3] [mg/kg] | ED50 [4] [mg/kg] | ED50 [5] [mg/kg] | MIC ([6]; A9537, overnight 37° C.) [µg/mL] | ED50 [7] [mg/kg] | MIC [8] [µg/mL] | MIC [9] [µg/mL] | MIC [10] [µg/mL] | MIC [12, 31] [µg/mL] | MIC [13] [µg/mL] | MIC [14] [µg/mL] | MIC [15] [µg/mL] | MIC [16] [µg/mL] | MIC [17] [µg/mL] | MIC [18] [µg/mL] | MIC [20] [µg/mL] | MIC [21] [µg/mL] | MIC [23] [µg/mL] | other results
1 | C[C@@H](O)[C@H]1C(=O)N2C(C(=O)[O-])=C(SCC[n+]3ccc(CO)cc3)C[C@H]12 [Example 6, (5R, 6S)-3-[2-(4-hydroxymethylpyridinio)ethylthio]-6-[1-(R)-hydroxyethyl]-7-oxo-1-azabicyclo[3.2.0]hept-2-ene-2-carboxylate] | 0.06 (≈ 0.165 µM) | 0.03 (≈ 0.0823 µM) | ~3 | ~16 | 0.6 | 0.03 (≈ 0.0823 µM) | 0.9 | 0.03 (≈ 0.0823 µM) | > 32 | > 63 | 1 (≈ 2.74 µM) | 0.5 (≈ 1.37 µM) | 4 (≈ 11 µM) | 0.03 (≈ 0.0823 µM) | 0.03 (≈ 0.0823 µM) | 0.06 (≈ 0.165 µM) | 0.03 (≈ 0.0823 µM) | 0.03 (≈ 0.0823 µM) | 0.06 (≈ 0.165 µM) | 0.03 (≈ 0.0823 µM) | MIC [11]: 0.5 µg/mL (≈ 1.37 µM); MIC ([19]; A21213): 0.5 µg/mL (≈ 1.37 µM); MIC [22]: > 32 µg/mL; half-life ([24]; pH 7.4, t1/2 (half-life)): 14.5 h; AUC [25]: 7700 ng·h/mL; Cmax [25]: 15200 ng/mL; half-life [25]: 0.167 h; dose excreted [25]: 38 ± 13%
2 | Cc1cccc[n+]1CCSC1=C(C(=O)[O-])N2C(=O)[C@H]([C@@H](C)O)[C@H]2C1 [Example 7, 3-[2-(1-(2-methylpyridinium))ethylthio]-6α-[1-(R)-hydroxyethyl]-7-oxo-1-azabicyclo(3.2.0)hept-2-ene-carboxylate] | 0.06 (≈ 0.172 µM) | 0.03 (≈ 0.0861 µM) | 0.6 | ~22 | 1.4 | 0.03 (≈ 0.0861 µM) | 0.9 | 0.03 (≈ 0.0861 µM) | > 32 | > 63 |  | 0.5 (≈ 1.44 µM) | 4 (≈ 11.5 µM) | 0.03 (≈ 0.0861 µM) | 0.03 (≈ 0.0861 µM) | 0.03 (≈ 0.0861 µM) | 0.03 (≈ 0.0861 µM) | 0.03 (≈ 0.0861 µM) | 0.03 (≈ 0.0861 µM) | 0.03 (≈ 0.0861 µM) | MIC ([6]; A9537, 50% serum): 0.03 µg/mL (≈ 0.0861 µM); MIC ([12]; A20688): 0.5 µg/mL (≈ 1.44 µM); MIC [26]: 0.06 µg/mL (≈ 0.172 µM); MIC [19, 32]: 1 µg/mL (≈ 2.87 µM); MIC [22]: > 32 µg/mL; half-life at 100 µM ([24]; pH 7.4, τ1/2 (half-life)): 15 h; AUC [25]: 7000 ng·h/mL; Cmax [25]: 15000 ng/mL; half-life [25]: 0.183 h; dose excreted [25]: 49 ± 9%
3 | Cc1cccc(C)[n+]1CCSC1=C(C(=O)[O-])N2C(=O)[C@H]([C@@H](C)O)[C@H]2C1 [Example 12] | 0.06 (≈ 0.166 µM) | 0.002 (≈ 0.00552 µM) |  |  |  | 0.008 (≈ 0.0221 µM) |  | 0.016 (≈ 0.0441 µM) |  |  | 0.25 (≈ 0.69 µM) |  | > 32 |  | 0.016 (≈ 0.0441 µM) | 0.06 (≈ 0.166 µM) | 0.002 (≈ 0.00552 µM) | 0.06 (≈ 0.166 µM) | 0.06 (≈ 0.166 µM) | 0.03 (≈ 0.0828 µM) | MIC ([6]; A9537, 50% serum): 0.03 µg/mL (≈ 0.0828 µM); MIC [27]: 0.5 µg/mL (≈ 1.38 µM); MIC [28]: 0.06 µg/mL (≈ 0.166 µM); MIC ([13]; overnight 37° C., table 6, read-out: MIC): 0.25 µg/mL (≈ 0.69 µM); ED50 [29]: > 25 mg/kg; MIC [26]: 0.25 µg/mL (≈ 0.69 µM); MIC [19, 32]: 16 µg/mL (≈ 44.1 µM); MIC [30]: 0.5 µg/mL (≈ 1.38 µM)

Reference: US4642341A, “Carbapenem antibiotics” (priority 1985, dated 1987)
